This passage reports Activity, half-life and Tm results from ChEMBL document CHEMBL3102777, “Binding ability of a thymine-functionalized oligolysine towards nucleic acids” (Bioorg Med Chem, 2014).

A short description of data set [1]: Binding affinity to dT12 DNA (unknown origin) at 24 nM by circular dichroism analysis.
Data set [2] can be described thus: Binding affinity to poly rA RNA (unknown origin) at 2:1 compound to RNA ratio by circular dichroism analysis.
Data set [3] is described as follows: Binding affinity to […] RNA (unknown origin) at 1.5:1 compound to RNA ratio by circular dichroism analysis.
The nature of data set [4]: Half life in 94% human serum at 14 uM. The format is ADME.
The nature of data set [5]: Binding affinity to […] RNA (unknown origin) at 12.8 uM assessed as melting temperature by UV analysis.
Data set [6] is described as follows: Binding affinity to poly rA RNA (unknown origin) at 24 nM by circular dichroism analysis.
Data set [7] is described as follows: Binding affinity to dA12 DNA (unknown origin) at 10 uM assessed as melting temperature by UV analysis.
Data set [8] in a line: Binding affinity to […] RNA (unknown origin) at 2:1 compound to RNA ratio by circular dichroism analysis.
Data set [9] can be described thus: Binding affinity to poly rA RNA (unknown origin) by surface plasmon resonance assay.
Data set [10] is described as follows: Binding affinity to poly rA RNA (unknown origin) at 2:1 compound to RNA ratio assessed as melting temperature by circular dichroism analysis.
A short description of data set [11]: Binding affinity to dA12 DNA (unknown origin) at 24 nM by circular dichroism analysis.
Data set [12] in a line: Binding affinity to dA12 DNA (unknown origin) at 2.5:1 compound to DNA ratio by circular dichroism analysis.
Data set [13] can be described thus: Binding affinity to […] RNA (unknown origin) by surface plasmon resonance assay.

The source made the active and inactive calls. The rule behind the calls is not given here. Residues, ends and D or L forms follow the SMILES beside them. *: point of attachment. Acetyl(thymin-1-yl) = Cc1cn(CC(=O)*)c(=O)[nH]c1=O

For the compound `Cc1cn(CC(=O)NCCCC[C@H](NC(=O)[C@H](CCCCN)NC(=O)[C@H](CCCCNC(=O)Cn2cc(C)c(=O)[nH]c2=O)NC(=O)[C@H](CCCCN)NC(=O)[C@H](CCCCNC(=O)Cn2cc(C)c(=O)[nH]c2=O)NC(=O)[C@H](CCCCN)NC(=O)[C@H](CCCCNC(=O)Cn2cc(C)c(=O)[nH]c2=O)NC(=O)[C@H](CCCCN)NC(=O)[C@H](CCCCNC(=O)Cn2cc(C)c(=O)[nH]c2=O)NC(=O)[C@H](CCCCN)NC(=O)[C@@H](N)CCCCNC(=O)Cn2cc(C)c(=O)[nH]c2=O)C(=O)N[C@@H](CCCCN)C(N)=O)c(=O)[nH]c1=O` (H-K(Acetyl(thymin-1-yl))KK(Acetyl(thymin-1-yl))KK(Acetyl(thymin-1-yl))KK(Acetyl(thymin-1-yl))KK(Acetyl(thymin-1-yl))KK(Acetyl(thymin-1-yl))K-NH2), the outcome in [1], in data set [2], in data set [3], in data set [6], in [8] and in data set [9] was Active. For the same compound, the outcome in [11], in data set [12] and in [13] was Active. Also, in data set [4], the half-life at 14 µM came to 45 min. In addition, the Tm in [5] came out at 27 °C; in [7], 25 °C; in data set [10], 35 °C.
